Measurements reported in US20200010457A1, “TETRAHYDROPYRAN AND TETRAHYDROTHIOPYRAN AMIDE DERIVATIVES HAVING MULTIMODAL ACTIVITY AGAINST PAIN” (ESTEVE PHARMACEUTICALS, S.A., priority 2016, published 2020).

Test system: human σ1 receptor and human μ-opioid receptor
Experiment: Human σ1 receptor ([3H](+)-pentazocine) and human μ-opioid receptor ([3H]-DAMGO) radioligand assays, reported as one combined score
Format: binding
Design: key to σ1 and μ binding: +: Both Ki-μ and Ki-σ1>=1000 nM; ++: One Ki<1000 nM while the other Ki is >=1000 nM; +++: Both Ki-μ and Ki-σ1<1000 nM; ++++: Both Ki-μ and Ki-σ1<500 nM
Conditions: combined class for Ki-σ1 (transfected HEK-293 membranes) and Ki-μ (transfected CHO-K1 cell membranes); for Ki: read-out: σ1 and μ binding
Procedure: Human σ1 Receptor Radioligand Assay
To investigate binding properties of test compounds to human σ1 receptor, transfected HEK-293 membranes and [^3H](+)-pentazocine (Perkin Elmer, NET-1056), as the radioligand, were used. The assay was carried out with 7 μg of membrane suspension, 5 nM of [^3H](+)-pentazocine in either absence or presence of either buffer or 10 μM Haloperidol for total and non-specific binding, respectively. Binding buffer contained Tris-HCl 50 mM at pH 8. Plates were incubated at 37° C. for 120 minutes. After the incubation period, the reaction mix was then transferred to MultiScreen HTS, FC plates (Millipore), filtered and plates were washed 3 times with ice-cold 10 mM TrisHCL (pH7.4). Filters were dried and counted at approximately 40% efficiency in a MicroBeta scintillation counter (Perkin-Elmer) using EcoScint liquid scintillation cocktail.
Preferably, transfected HEK-293 membranes (7 μg) were incubated with 5 nM of [^3H](+)-pentazocine in assay buffer containing Tris-HCl 50 mM at pH 8. NBS (non-specific binding) was measured by adding 10 μM Haloperidol. The binding of the test compound was measured at five different concentrations. Plates were incubated at 37° C. for 120 minutes. After the incubation period, the reaction mix was then transferred to MultiScreen HTS, FC plates (Millipore), filtered and plates were washed 3 times with ice-cold 10 mM TrisHCL (pH7.4). Filters were dried and counted at approximately 40% efficiency in a MicroBeta scintillation counter (Perkin-Elmer) using EcoScint liquid scintillation cocktail.
Human μ-Opioid Receptor Radioligand Assay
To investigate binding properties of test compounds to human μ-opioid receptor, transfected CHO-K1 cell membranes and [^3H]-DAMGO (Perkin Elmer, ES-542-C), as the radioligand, were used. The assay was carried out with 20 μg of membrane suspension, 1 nM of [^3H]-DAMGO in either absence or presence of either buffer or 10 μM Naloxone for total and non-specific binding, respectively. Binding buffer contained Tris-HCl 50 mM, MgCl2 5 mM at pH 7.4. Plates were incubated at 27° C. for 60 minutes. After the incubation period, the reaction mix was then transferred to MultiScreen HTS, FC plates (Millipore), filtered and plates were washed 3 times with ice-cold 10 mM TrisHCL (pH 7.4). Filters were dried and counted at approximately 40% efficiency in a MicroBeta scintillation counter (Perkin-Elmer) using EcoScint liquid scintillation cocktail.
Preferably, transfected CHO-K1 cell membranes (20 μg) were incubated with 1 nM of [^3H]-DAMGO in assay buffer containing Tris-HCl 50 mM, MgCl2 5 mM at pH 7.4. NBS (non-specific binding) was measured by adding 10 μM Naloxone. The binding of the test compound was measured at five different concentrations. Plates were incubated at 27° C. for 60 minutes. After the incubation period, the reaction mix was then transferred to MultiScreen HTS, FC plates (Millipore), filtered and plates were washed 3 times with ice-cold 10 mM TrisHCL (pH 7.4). Filters were dried and counted at approximately 40% efficiency in a MicroBeta scintillation counter (Perkin-Elmer) using EcoScint liquid scintillation cocktail.

SMILES	σ1 and μ binding	Ki [µM]
CCOCCN(C)CCN(C)C1(CN(C(=O)CC)c2cccc(C(F)(F)F)n2)CCOCC1 [Example 4, N-((4-((2-((2-Ethoxyethyl)(methyl)amino)ethyl)(methyl)amino)tetrahydro-2H-pyran-4-yl)methyl)-N-(6-(trifluoromethyl)pyridin-2-yl)propionamide]	++	–
CCC(=O)N(CC1(N(C)CCNCC(C)C)CCOCC1)c1cccc(C(F)(F)F)n1 [Example 3, N-((4-((2-(Isobutylamino)ethyl)(methyl)amino)tetrahydro-2H-pyran-4-yl)methyl)-N-(6-(trifluoromethyl)pyridin-2-yl)propionamide]	++	–
CCOCCNCCCC1(CN(C(=O)CC)c2cccc(C(F)(F)F)n2)CCOCC1 [Example 6, N-((4-(3-((2-ethoxyethyl)amino)propyl)tetrahydro-2H-pyran-4-yl)methyl)-N-(6-(trifluoromethyl)pyridin-2-yl)propionamide]	–	< 1
CCOCCN(C)CCCC1(CN(C(=O)CC)c2cccc(C(F)(F)F)n2)CCOCC1 [Example 9, N-((4-(3-((2-ethoxyethyl)(methyl)amino)propyl)tetrahydro-2H-pyran-4-yl)methyl)-N-(6-(trifluoromethyl)pyridin-2-yl)propionamide]	–	≥ 1
CCC(=O)N(CC1(N(C)CCN(Cc2ccccc2)CC(C)C)CCOCC1)c1cccc(C(F)(F)F)n1 [Example 1, N-((4-((2-(Benzyl(isobutyl)amino)ethyl)(methyl)amino)tetrahydro-2H-pyran-4-yl)methyl)-N-(6-(trifluoromethyl)pyridin-2-yl)propionamide]	–	≥ 1
CCC(=O)N(CC1(CCCNCC(C)C)CCOCC1)c1cccc(C(F)(F)F)n1 [Example 5, N-((4-(3-(Isobutylamino)propyl)tetrahydro-2H-pyran-4-yl)methyl)-N-(6-(trifluoromethyl)pyridin-2-yl)propionamide]	++	–
CCC(=O)N(CC1(CCNCC(C)C)CCOCC1)c1cccc(C(F)(F)F)n1 [Example 7, N-((4-(2-(isobutylamino)ethyl)tetrahydro-2H-pyran-4-yl)methyl)-N-(6-(trifluoromethyl)pyridin-2-yl)propionamide]	–	≥ 1
CCC(=O)N(CC1(N(C)CCN(C)Cc2ccccc2)CCOCC1)c1cccc(C(F)(F)F)n1 [Example 2, N-((4-((2-(benzyl(methyl)amino)ethyl)(methyl)amino)tetrahydro-2H-pyran-4-yl)methyl)-N-(6-(trifluoromethyl)pyridin-2-yl)propionamide]	++	–
CCC(=O)N(CC1(CCCN(C)CC(C)C)CCOCC1)c1cccc(C(F)(F)F)n1 [Example 8, N-((4-(3-(isobutyl(methyl)amino)propyl)tetrahydro-2H-pyran-4-yl)methyl)-N-(6-(trifluoromethyl)pyridin-2-yl)propionamide]	++	–
